Data from patent US6552061B1, “Amino acid derivatives and anti-inflammatory agents” (Ajinomoto Co., Inc., priority 1998, dated 2003).

Legend:
Type in all cases: cell-based
[1] = system: NF-κB; experiment: Test for an Activity of Inhibiting NF-κB Activation (gel shift assay, UVB-irradiated human epidermal cells); details: light or radiation study, read-out: inhibitory rate (%) of NF-κB activation; for inhibition at 1000 µM: concentration 1 mM; for inhibition at 10 µM: concentration 10 μM; for inhibition at 50 µM: concentration 50 μM; for inhibition at 100 µM: concentration 100 μM; for inhibition at 2000 µM: concentration 2 mM
Experimental: Test for an Activity of Inhibiting NF-κB Activation
(§1) Eighteen hours later, the culture solution was replaced with a phenol red-free medium. The cells were subjected to UV irradiation (UVB: 50 mJ/m^2)using Dermaray M-DMR-80 (supplied by Toshiba Iryo Yohin KK). After from 4 to 5 hours passed, the cells were recovered, and the nucleoproteins were extracted in a usual manner. With respect to the resulting nucleoproteins, NF-κB activated by gel shift assay was detected. The amount of NF-κB was determined by measuring a radioactivity of an NF-κB band using a bio-imaging analyzer BAS 2000 (supplied by Fuji Photo Film). The rate of inhibition of NF-κB activation on the test compound was calculated using formula (III).
Rate (%) of inhibition of NF-κB activation={1−(A1−A3)/(A2−A3)}×100 (III)
A1: radioactivity of an NF-κB band in the addition of the test compound
A2: radioactivity of an NF-κB band in the non-addition of the test compound
A3: radioactivity of an NF-κB band when the test compound was not added, nor was UV irradiation conducted

[2] = system: AP-1; experiment: Test for an Activity of Inhibiting AP-1 Activation (gel shift assay, UVA-irradiated human dermal fibroblasts); details: AP1, light or radiation study, read-out: inhibitory rate (%) of AP-1 activation; for inhibition at 500 µM: concentration 0.5 mM; for inhibition at 1000 µM: concentration 1 mM; for inhibition at 1 µM: concentration 1 μM; for inhibition at 10 µM: concentration 10 μM; for inhibition at 5 µM: concentration 5 μM; for inhibition at 20 µM: concentration 20 μM
Experimental: Test for an Activity of Inhibiting AP-1 Activation
as §1, with “The test compound was added to human dermal fibroblasts which had become confluent in a culture plate. Eighteen” for “Eighteen”, “(UVA: 20 J/cm^2) using” for “(UVB: 50 mJ/m^2)using”, “AP-1” for “NF-κB”, “(IV).” for “(III).”
Rate (%) of inhibition of AP-1 activation={1−(A4−A6)/(A5−A6)}×100 (IV)
A4: radioactivity of an AP-1 band in the addition of the test compound
A5: radioactivity of an AP-1 band in the non-addition of the test compound
A6: radioactivity of an AP-1 band when the test compound was not added, nor was UV irradiation conducted

[3] = system: collagenase; experiment: Test for an Activity of Inhibiting Collagenase Expression (MMP-1 ELISA, UVA-irradiated human dermal fibroblasts); details: Fibroblast, light or radiation study, 24 h, read-out: inhibitory rate (%) of collagenase expression; for inhibition at 100 µM: concentration 0.1 mM; for inhibition at 500 µM: concentration 0.5 mM; for inhibition at 1 µM: concentration 1 μM; for inhibition at 10 µM: concentration 10 μM; for inhibition at 1000 µM: concentration 1 mM
Experimental: Test for an Activity of Inhibiting Collagenase Expression
(§2) The test compound was added to human dermal fibroblasts which had become confluent in a culture plate. Eighteen hours later, the culture solution was replaced with a phenol red-free medium. The cells were subjected to UV irradiation (UVA; 20 J/cm^2) using Dermaray M-DMR-80 (supplied by Toshiba Iryo Yohin KK). After 24 hours passed, the culture solution was recovered, and the collagenase concentration in the culture solution was measured using MMP-1α·ELISA System (supplied by Amersham Corp.). The rate of inhibition of collagenase expression on the test compound was calculated using formula (VI).
Rate (%) of inhibition of collagenase expression={1−(B4−B6)/(B5−B6)}×100 (VI)
B4: collagenase concentration in the addition of the test compound
B5: collagenase concentration in the non-addition of the test compound
B6: collagenase concentration when the test compound was not added, nor was UV irradiation conducted

[4] = system: IL-1α; experiment: Test for an Activity of Inhibiting IL-1α Expression (ELISA, UVB-irradiated human epidermal cells); details: light or radiation study, 24 h, read-out: inhibitory rate (%) of IL-1α expression; for inhibition at 50 µM: concentration 50 μM; for inhibition at 10 µM: concentration 10 μM; for inhibition at 100 µM: concentration 100 μM
Experimental: Test for an Activity of Inhibiting IL-1α Expression
as §2, with “epidermal cells” for “dermal fibroblasts”, “(UVB: 50 mJ/cm^2)” for “(UVA; 20 J/cm^2)”, “IL-1α” for “collagenase”, “IL-1α·ELISA” for “MMP-1α·ELISA”, “(V).” for “(VI).”
Rate (%) of inhibition of IL-1α expression={1−(B1−B3)/(B2−B3)}×100 (V)
B1: IL-1α concentration in the addition of the test compound
B2: IL-1α concentration in the non-addition of the test compound
B3: IL-1α concentration when the test compound was not added, nor was UV irradiation conducted

With `CCNC(=O)[C@H](Cc1ccccc1)NCc1ccccc1O` [N-(2-hydroxybenzyl)-L-phenylalanine ethyl amide] the inhibition at 500 µM ([1]; concentration 0.5 mM) was 102%, the inhibition at 1000 µM [1] was 47% and the inhibition at 500 µM [2] was 34%. The inhibition at 1000 µM [2] was 61%, the inhibition at 100 µM [3] was 32% and the inhibition at 500 µM [3] was 27%.

For `CCCCCCCCCCCCNC(=O)[C@H](CC(C)C)NCc1ccccc1O` [N-(2-hydroxybenzyl)-L-leucine lauryl amide], the inhibition at 10 µM [1] was 40%, the inhibition at 50 µM [1] was 89% and the inhibition at 1 µM [3] was 37%. The inhibition at 10 µM [3] was 60%, the inhibition at 20 µM ([4]; concentration 20 μM) was 27% and the inhibition at 50 µM [4] was 79%.

`CCCCCCCCCCCCNC(=O)[C@@H]1CCC(=O)N1Cc1ccccc1O` [N-(2-hydroxybenzyl)-L-pyroglutamic acid lauryl amide] gave an inhibition at 50 µM [1] of 75%, an inhibition at 100 µM [1] of 74% and an inhibition at 100 µM ([2]; concentration 100 μM) of 42%. For the same molecule, the inhibition at 10 µM [3] was 23%, the inhibition at 50 µM ([3]; concentration 50 μM) was 52% and the inhibition at 10 µM [4] was 25%. For the same molecule, the inhibition at 50 µM [4] was 28%.

`CCCCCCCCCCCCOC(=O)[C@H](C)NCc1ccccc1O` [N-(2-hydroxybenzyl)-L-alanine lauryl ester] gave an inhibition at 10 µM [1] of 20%, an inhibition at 100 µM [1] of 81% and an inhibition at 10000 µM ([2]; concentration 10 mM) of 68%. The inhibition at 10 µM [3] was 58%, the inhibition at 10 µM [4] was 23% and the inhibition at 100 µM [4] was 72%.

`C[C@@H]1C[C@H]2[C@@H]3CCC4=CC(=O)C=C[C@]4(C)[C@@]3(F)[C@@H](O)C[C@]2(C)[C@@]1(O)C(=O)CO` [dexamethasone, reference compound] gave an inhibition at 1 µM [2] of 39%, an inhibition at 10 µM [2] of 34% and an inhibition at 1 µM [3] of 27%. For the same molecule, the inhibition at 10 µM [3] was 53%, the inhibition at 10 µM [4] was 48% and the inhibition at 100 µM [4] was 65%.

`CC(=O)Oc1ccccc1C(=O)O` [aspirin, reference compound] was tested, and the inhibition at 1000 µM [2] was -4%, the inhibition at 5000 µM ([2]; concentration 5 mM) was 14% and the inhibition at 1000 µM [3] was -197%.

In the case of `CCCCCCCCCCCCCCCCCCNC(=O)[C@H](C)NCc1ccccc1O` [N-(2-hydroxybenzyl)-L-alanine stearyl amide], the inhibition at 1 µM [2] is reported as 72%, the inhibition at 5 µM [2] is reported as 47% and the inhibition at 1 µM [3] is reported as 72%. The inhibition at 5 µM ([4]; concentration 5 μM) was 30% and the inhibition at 10 µM [4] was 77%.

`CCCCCCCCCCCCNC(=O)[C@H](C)NCc1ccccc1O` [N-(2-hydroxybenzyl)-L-alanine lauryl amide] showed an inhibition at 10 µM [1] of 53%, an inhibition at 20 µM ([1]; concentration 20 μM) of 65% and an inhibition at 10 µM [2] of 57%. For the same molecule, the inhibition at 20 µM [2] was 56%, the inhibition at 1 µM [3] was 57% and the inhibition at 10 µM [4] was 69%. For the same molecule, the inhibition at 50 µM [4] was 73%.

`CCCCCCCCCCCCOC(=O)[C@H](CCC(=O)O)NCc1ccccc1O` [N-(2-hydroxybenzyl)-L-glutamic acid lauryl ester] gave an inhibition at 100 µM [1] of 45%, an inhibition at 10 µM [2] of 33% and an inhibition at 1 µM [3] of 53%. For the same molecule, the inhibition at 10 µM [3] was 49% and the inhibition at 10 µM [4] was 54%.

In the case of `CCCCCCCCCCCCNC(=O)[C@H](Cc1ccc(O)cc1)NCc1ccccc1O` [N-(2-hydroxybenzyl)-L-tyrosine lauryl amide], the inhibition at 10 µM [1] is reported as 39%, the inhibition at 10 µM [2] is reported as 40% and the inhibition at 20 µM [2] is reported as 55%. For the same molecule, the inhibition at 1 µM [3] was 42%, the inhibition at 10 µM [3] was 84% and the inhibition at 10 µM [4] was 56%.

Work on `CCOC(=O)[C@H](CO)NCc1ccccc1O` [N-(2-hydroxybenzyl)-L-serine ethyl ester] yielded an inhibition at 1000 µM [1] of 37%, an inhibition at 2000 µM [1] of 56% and an inhibition at 1000 µM [2] of 73%. It also gave an inhibition at 500 µM [3] of 30% and an inhibition at 2000 µM ([4]; concentration 2 mM) of 44%.

Molecule `CCOC(=O)[C@H](Cc1c[nH]cn1)NCc1ccccc1O` [N-(2-hydroxybenzyl)-L-histidine ethyl ester] has an inhibition at 1000 µM [1] of 69%, an inhibition at 2000 µM [1] of 72% and an inhibition at 500 µM [2] of 20%. The inhibition at 1000 µM [2] was 38%, the inhibition at 100 µM [3] was 44% and the inhibition at 1000 µM [3] was 51%.

Molecule `CCCCCCCCCCCCOC(=O)[C@H](Cc1ccc(O)cc1)NCc1ccccc1O` [N-(2-hydroxybenzyl)-L-tyrosine lauryl ester] has an inhibition at 5 µM ([1]; concentration 5 μM) of 20%, an inhibition at 10 µM [1] of 43% and an inhibition at 1 µM [2] of 19%. The inhibition at 10 µM [2] was 45% and the inhibition at 10 µM [3] was 61%.

In the case of `CCCCCCCCCCCCCCCCCCOC(=O)[C@H](C)NCc1ccccc1O` [N-(2-hydroxybenzyl)-L-alanine stearyl ester], the inhibition at 10 µM [1] is reported as 31%, the inhibition at 1 µM [2] is reported as 20% and the inhibition at 5 µM [2] is reported as 48%. It also gave an inhibition at 1 µM [3] of 57%, an inhibition at 1 µM ([4]; concentration 1 μM) of 25% and an inhibition at 10 µM [4] of 25%.
